{
  "source": "patent US20250177425A1",
  "about": "“SAIKOSAPONIN C AS COMPOSITION FOR TREATING OR PREVENTING AGE-RELATED VASCULAR DISEASES INCLUDING ARTERIOSCLEROSIS” (AGINGTARGET, INC., priority 2022, published 2025)",
  "assay_type_in_all_cases": "cell-based, human",
  "key": {"[1]": {"test_system": "PAI-1, ICAM-1, and VCAM-1 in HPAEC", "assay": "Western blotting of vascular senescence marker proteins", "settings": "5 μM and 20 μM pretreatment 2 hours, 33 mM high glucose 48 hours, dose-dependent", "protocol": "(§1) Similar to Experimental Example 1, a high-fat diet evaluation system at the cellular level was established.\n(§2) Specifically, two types of vascular endothelial cells, namely, HUVEC and HPAEC cells, were pretreated with Saikosaponin C at concentrations of 5 μM and 20 μM for 2 hours, and then treated with high glucose at a concentration of 33 mM for 72 hours (for SA-β-gal staining) or 48 hours (for vascular senescence marker protein analysis). Then, the degree of cellular senescence was measured through SA-β-gal staining and measured as the ratio of the total cells to cells stained in blue (SA-β-gal positive). In addition, the expression of vascular senescence marker proteins such as PAI-1, ICAM-1, and VCAM-1 was analyzed.\n(§3) Specifically, the senescence of vascular endothelial cells was evaluated by SA-β-gal staining to measure the activity of β-galactosidase, which is an enzyme present in the lysosome, an organelle within the cell (FIG. 3C and FIG. 3D) and this was represented as a graph (FIG. 3A and FIG. 3B). In addition, FIGS. 3E and 3F show the results of Western blotting to determine the expression of vascular senescence marker proteins such as PAI-1, ICAM-1, and VCAM-1 in two types of vascular endothelial cells (HUVEC, HPAEC)."}, "[2]": {"test_system": "PAI-1, ICAM-1, and VCAM-1 in HUVEC", "assay": "Western blotting of vascular senescence marker proteins", "settings": "5 μM and 20 μM pretreatment 2 hours, 33 mM high glucose 48 hours, dose-dependent", "protocol": "as §1, §2, §3"}, "[3]": {"test_system": "p21, p27, and p16 in HPAEC", "assay": "Western blotting of G1 phase growth arrest-inducing proteins", "settings": "5 μM and 20 μM pretreatment 2 hours, 33 mM high glucose 36 hours, dose-dependent", "protocol": "as §1\n(§4) Specifically, two types of vascular endothelial cells, namely, HUVEC and HPAEC cells, were pretreated with Saikosaponin C at concentrations of 5 μM and 20 μM for 2 hours, then treated with high glucose (33 mM) for 48 hours, and then immobilized with cold 70% ethanol. The DNA of the immobilized vascular endothelial cells was stained with PI (propidium iodide, 50 μg/ml) solution and the cell cycle was analyzed using a flow cytometer. In addition, the expression of cell cycle regulatory proteins such as p21, p27, and p16 was analyzed after treatment with high glucose (33 mM) for 36 hours.\n(§5) Since cellular senescence is closely related to the arrest in the G1 phase of the cell cycle, the cell cycle was evaluated using flow cytometry (FIG. 4A and FIG. 4B). In addition, the expression of p21, p27, and p16 proteins, which are G1 phase growth arrest-inducing proteins, was measured through Western blotting (FIG. 4C, FIG. 4D)."}, "[4]": {"test_system": "p21, p27, and p16 in HUVEC", "assay": "Western blotting of G1 phase growth arrest-inducing proteins", "settings": "5 μM and 20 μM pretreatment 2 hours, 33 mM high glucose 36 hours, dose-dependent", "protocol": "as §1, §4, §5"}, "[5]": {"test_system": "eNOS / nitric oxide in HPAEC", "assay": "NOS-NO signaling: nitric oxide level, eNOS activity, expression, phosphorylation", "settings": "5 μM and 20 μM pretreatment 2 hours, 33 mM high glucose 36 hours, dose-dependent", "protocol": "as §1\n(§6) Specifically, two types of vascular endothelial cells, namely, HUVEC and HPAEC cells, were pretreated with Saikosaponin C at concentrations of 5 μM and 20 μM for 2 hours, and then treated with high glucose at a concentration of 33 mM for 36 hours. Then, the nitric oxide (NO) concentration, endothelial nitric oxide synthase (eNOS) activity, protein expression, and phosphorylation level were analyzed.\n(§7) Nitric oxide production was measured using a Nitric Oxide Assay Kit (FIG. 6A and FIG. 6B). Specifically, nitrate (NO3^−) and nitrite (NO2^−) levels were measured using nitrate reductase and Griess reagent. Nitric oxide synthase activity was measured using a NOS Activity Assay Kit (FIG. 6C and FIG. 6D) and the expression and phosphorylation (Ser114) of NOS were measured by Western blotting (FIG. 6E and FIG. 6F)."}, "[6]": {"test_system": "eNOS / nitric oxide in HUVEC", "assay": "NOS-NO signaling: nitric oxide level, eNOS activity, expression, phosphorylation", "settings": "5 μM and 20 μM pretreatment 2 hours, 33 mM high glucose 36 hours, dose-dependent", "protocol": "as §1, §6, §7"}, "Sirt1 in HPAEC": {"test_system": "Sirt1 in HPAEC", "assay": "Sirt1 activity assay kit and Western blotting (expression, phosphorylation)", "settings": "5 μM and 20 μM pretreatment 2 hours, 33 mM high glucose 36 hours, dose-dependent", "protocol": "as §1\nas §6, with “Sirt1” for “the nitric oxide (NO) concentration, endothelial nitric oxide synthase (eNOS)”, “expression” for “expression,”, “levels” for “level”\n(§8) Sirt1 activity was measured using the Sirt1 Activity Assay Kit (FIG. 7A and FIG. 7B), and Sirt1 protein expression and phosphorylation (Ser27, Ser47) were measured through Western blotting (FIG. 7C and FIG. 7D)."}, "Sirt1 in HUVEC": {"test_system": "Sirt1 in HUVEC", "assay": "Sirt1 activity assay kit and Western blotting (expression, phosphorylation)", "settings": "5 μM and 20 μM pretreatment 2 hours, 33 mM high glucose 36 hours, dose-dependent", "protocol": "as §1\nas §6, with “Sirt1” for “the nitric oxide (NO) concentration, endothelial nitric oxide synthase (eNOS)”, “expression” for “expression,”, “levels” for “level”\nas §8"}},
  "data": [
    {"compound": "CC1O[C@@H](O[C@@H]2C(CO[C@@H]3OC(CO)[C@@H](O)C(O)C3O)O[C@@H](O[C@H]3CC[C@]4(C)[C@H]5C=C[C@]67OC[C@@]8(CCC(C)(C)C[C@H]86)[C@@H](O)C[C@@]7(C)[C@]5(C)CC[C@H]4C3(C)C)C(O)C2O)C(O)C(O)[C@H]1O", "note": "(some centres unmarked) [Saikosaponin C]", "values": [
      {"measurement": "expression of vascular senescence marker proteins PAI-1, ICAM-1, and VCAM-1", "setting": "[1]", "value": "reduced"},
      {"measurement": "expression of vascular senescence marker proteins PAI-1, ICAM-1, and VCAM-1", "setting": "[2]", "value": "reduced"},
      {"measurement": "high glucose-induced increase in the expression of p21, p27, and p16 proteins", "setting": "[3]", "value": "significantly abolished"},
      {"measurement": "high glucose-induced increase in the expression of p21, p27, and p16 proteins", "setting": "[4]", "value": "significantly abolished"},
      {"measurement": "high glucose-induced decrease in NOS-NO signaling (NO level, eNOS enzymatic activity, protein expression, phosphorylation)", "setting": "[5]", "value": "significantly alleviated"},
      {"measurement": "high glucose-induced decrease in NOS-NO signaling (NO level, eNOS enzymatic activity, protein expression, phosphorylation)", "setting": "[6]", "value": "significantly alleviated"},
      {"measurement": "high glucose-induced decrease in Sirt1 enzyme activity, protein expression, and phosphorylation", "setting": "Sirt1 in HPAEC", "value": "significantly alleviated"},
      {"measurement": "high glucose-induced decrease in Sirt1 enzyme activity, protein expression, and phosphorylation", "setting": "Sirt1 in HUVEC", "value": "significantly alleviated"}
    ]}
  ]
}
